Molecules are shown by their SMILES.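 The compound was tested at five concentrations on cells cultured in 96-well plates, with a 48-hour exposure period. GI50 is the concentration that inhibits growth by half.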 The source made the active and inactive calls. Rule as the data show it: active = GI50 up to about 1.1 µM and inactive = higher.

Some test systems named below: OVCAR-3; OVCAR-4; NCI-H226; COLO 205; EKVX; SNB-75; UACC-62; SK-MEL-5; M14; KM-20L2; SW-620; HT-29; HCT-15; SN12C; SF-539; HCC 2998; IGROV-1; MCF7; MDA-MB-435; NCI/ADR-RES.
Common to all, as to experiment: NCI-60 cell line screen, 48 h

For the molecule `Cn1c(=O)nc2n(-c3cccc(F)c3)c3ccccc3nc-2c1=O`, the GI50 is 3.57 µM (inactive) with OVCAR-3; 14.7 µM (inactive) in the test on OVCAR-4; 29.6 µM (inactive) in the test with NCI-H226; 6.11 µM (inactive) in the test on COLO 205; 13.8 µM (inactive) with EKVX; 24.8 µM (inactive) in the test with SNB-75. Besides, the GI50 with UACC-62 is 3.12 µM (inactive); in the test on SK-MEL-5, 14.2 µM (inactive); in the test on M14, 18.7 µM (inactive); in the test with KM-20L2, 12.3 µM (inactive); in the test on SW-620 it was 11.1 µM (inactive); in the test on HT-29, 5.92 µM (inactive). For the same molecule, the GI50 was 16.6 µM in the test with HCT-15; 23.6 µM (inactive) in the test with SN12C; 25.4 µM (inactive) in the test with SF-539; 13.4 µM (inactive) with HCC 2998; 26.8 µM (inactive) with IGROV-1.

For `COc1ccc(CCC2c3cc(OC)c(OC)cc3CCN2C)cc1OC` (stereo unspecified), the GI50 in the test on OVCAR-3, in the test with OVCAR-4, with NCI-H226, in the test on COLO 205, in the test with EKVX and in the test with SNB-75 was > 100 µM (inactive) in each case. Besides, the GI50 in the test on UACC-62, with SK-MEL-5, with M14, with KM-20L2, with SW-620 and in the test with HT-29 was > 100 µM (inactive) in each case. For the same molecule, the GI50 with HCT-15 was greater than 100 µM; in the test with SN12C, > 100 µM (inactive); with SF-539, > 100 µM (inactive); in the test with HCC 2998, > 100 µM (inactive); with IGROV-1 it was > 100 µM (inactive).

`C[N+]1=C(c2cccnc2/C=N/O)OCC1(C)C`: the GI50 in the test on OVCAR-3 was > 100 µM (inactive); in the test with OVCAR-4 it was > 100 µM (inactive); in the test with NCI-H226, < 0.01 µM (active); with COLO 205, > 100 µM (inactive); with EKVX, > 100 µM (inactive); in the test with SNB-75 it was > 100 µM (inactive). Moreover, the GI50 in the test on UACC-62, in the test on SK-MEL-5, with M14, in the test with KM-20L2, with SW-620 and with HT-29 was > 100 µM (inactive) each time. The GI50 in the test on HCT-15 was greater than 100 µM; in the test with SN12C, > 100 µM (inactive); with SF-539 it was > 100 µM (inactive); in the test on HCC 2998, > 100 µM (inactive); in the test on IGROV-1, > 100 µM (inactive).

As for `CC(=O)OCC1OC(N2C(=O)[C@@H](Oc3ccccc3)[C@H]2/C=C/c2ccccc2)C(OC(C)=O)C(OC(C)=O)C1OC(C)=O` (stereo partly specified), the GI50 in the test with OVCAR-3 is > 100 µM (inactive); with OVCAR-4, > 100 µM (inactive); in the test on NCI-H226, > 100 µM (inactive); in the test on COLO 205, > 100 µM (inactive); in the test on EKVX it was > 100 µM (inactive); with SNB-75, 31.1 µM (inactive). The GI50 with UACC-62, in the test with SK-MEL-5, with M14, with KM-20L2, with SW-620 and in the test with HT-29 was > 100 µM (inactive) throughout. The GI50 was greater than 100 µM in the test on HCT-15; > 100 µM (inactive) in the test with SN12C; > 100 µM (inactive) in the test with SF-539; > 100 µM (inactive) in the test with HCC 2998; > 100 µM (inactive) with IGROV-1.

For `C=C1C(=O)O[C@@H]2C[C@@H](C)[C@@H]3C=CC(=O)[C@@]3(C)[C@@H](OC(=O)CC(=O)O[C@H]3[C@@H]4C(=C)C(=O)O[C@@H]4C[C@@H](C)[C@@H]4C=CC(=O)[C@]43C)[C@H]12`, the GI50 with OVCAR-3 is 0.033 µM (active); in the test on OVCAR-4, 0.0468 µM (active); in the test with MCF7 it was 0.0356 µM (active); in the test on NCI-H226 it was 0.102 µM (active); in the test on COLO 205, < 0.0148 µM (active); in the test with EKVX, 0.0811 µM (active). For the same molecule, the GI50 was 0.136 µM (active) in the test on SNB-75; 0.0306 µM (active) in the test with UACC-62; 0.0869 µM (active) with SK-MEL-5; 0.0235 µM (active) in the test with M14; 0.0771 µM (active) with KM-20L2; 0.0129 µM (active) with SW-620. In addition, the GI50 was 0.0342 µM (active) with HT-29; 0.0356 µM (active) with MDA-MB-435; 0.0309 µM with HCT-15; 0.0348 µM (active) in the test on SN12C; 0.0252 µM (active) in the test on SF-539; 0.146 µM (active) with HCC 2998. Moreover, the GI50 in the test on IGROV-1 was 0.173 µM (active).

With `COc1ccc(C2c3cc(OC)c(OC)cc3C(Cc3ccc([N+](=O)[O-])cc3)C2c2ccc([N+](=O)[O-])cc2)cc1OC` (stereo unspecified), the GI50 in the test with OVCAR-3 was > 100 µM (inactive); in the test on OVCAR-4, > 100 µM (inactive); in the test with NCI-H226 it was > 100 µM (inactive); in the test with COLO 205 it was > 100 µM (inactive); in the test on EKVX it was > 100 µM (inactive); with SNB-75, 49.7 µM (inactive). Also, the GI50 in the test on UACC-62, in the test on SK-MEL-5, in the test on M14, in the test with KM-20L2, with SW-620 and in the test on HT-29 was > 100 µM (inactive) each time. The GI50 in the test on HCT-15 was greater than 100 µM; with SN12C it was > 100 µM (inactive); in the test on SF-539, > 100 µM (inactive); in the test with HCC 2998, > 100 µM (inactive); in the test on IGROV-1, > 100 µM (inactive).

Turning to `N#CC(C#N)=c1[nH]c2cccc3c2-c2c(cccc2c3=C(C#N)C#N)[nH]1`, the GI50 in the test on OVCAR-3 was > 100 µM (inactive); with OVCAR-4, > 100 µM (inactive); in the test with NCI-H226 it was > 100 µM (inactive); in the test with COLO 205, > 100 µM (inactive); in the test on EKVX it was > 100 µM (inactive); with SNB-75 it was 53.1 µM (inactive). For the same molecule, the GI50 in the test on UACC-62, with SK-MEL-5, with M14, in the test with KM-20L2, in the test on SW-620 and with HT-29 was > 100 µM (inactive) each time. Also, the GI50 was greater than 100 µM in the test on HCT-15; > 100 µM (inactive) with SN12C; > 100 µM (inactive) in the test with SF-539; > 100 µM (inactive) with HCC 2998; > 100 µM (inactive) in the test on IGROV-1.

As to `Sc1ncnc2nc[nH]c12` [MERCAPTOPURINE ANHYDROUS], the GI50 in the test on OVCAR-3 is 0.857 µM (active); in the test with OVCAR-4, 8.05 µM (inactive); in the test with MCF7 it was 1.64 µM (inactive); with NCI-H226 it was 58.5 µM (inactive); with COLO 205, 4.94 µM (inactive); with EKVX it was 263 µM (inactive). The GI50 in the test with SNB-75 is 8.75 µM (inactive); with UACC-62 it was 1.76 µM (inactive); with SK-MEL-5 it was 8.36 µM (inactive); in the test on M14 it was 0.675 µM (active); in the test on KM-20L2, 1.92 µM (inactive); with NCI/ADR-RES, 3.56 µM (inactive). Besides, the GI50 in the test on SW-620 is 6.38 µM (inactive); with HT-29 it was 4.02 µM (inactive); in the test with MDA-MB-435, 1.44 µM (inactive); in the test with HCT-15, 4.57 µM; in the test on SN12C, 23.8 µM (inactive); in the test with SF-539 it was 2.49 µM (inactive). The GI50 in the test on HCC 2998 was 3.51 µM (inactive); with IGROV-1 it was 9.48 µM (inactive).

(Values after ChEMBL document CHEMBL1201862, “PubChem BioAssay data set” (2004).)
